According to patent publication US10150737B2, “Compounds for controlling arthropods” (priority 2013, dated 2018):

Columns and labels:
Myzus persicae = Myzus persicae - spray test; assay type: in vivo; conditions: Chinese cabbage leaf discs, after 6 days
Outline: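 Mortality of the green peach aphid, as % killed, was read 6 days after spraying infested Brassica pekinensis leaf discs. Compound formulated in acetone/dimethylformamide and made up with emulsifier-containing (1000 ppm) water.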

Phaedon cochleariae = Phaedon cochleariae - spray test; assay type: in vivo; conditions: larvae on Chinese cabbage leaf discs, after 7 days
Outline: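 Mortality of mustard beetle larvae was scored as % at day 7 on Brassica pekinensis leaf discs. Discs had been treated by spraying at the desired concentration, using an acetone/dimethylformamide solution diluted in water with 1000 ppm alkylaryl polyglycol ether, and dried before larvae were added.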

Ctenocephalides felis [1] = experiment: Ctenocephalides felis - oral test; assay type: in vivo; conditions: application rate 100 ppm in citrated cattle blood; after 2 days
Outline: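 Roughly 20 unfed adult C. felis imbibe compound-dosed citrated cattle blood (DMSO formulation) across parafilm from a cylinder above their gauze chamber; percentage mortality recorded at day 2.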

Amblyomma hebraeum = experiment: Amblyomma hebaraeum test (tick nymphs, immersion); assay type: in vivo; conditions: application rate 100 ppm; tick nymphs immersed one minute; after 42 days
Description: Solvent: dimethyl sulphoxide
To produce an appropriate active ingredient formulation, 10 mg of active ingredient are mixed with 0.5 ml of dimethyl sulphoxide, and the concentrate is diluted with water to the desired concentration.
Tick nymphs (Amblyomma hebraeum) are placed into perforated plastic beakers and immersed in the desired concentration for one minute. The ticks are transferred on filter paper into a Petri dish and stored in a climate-controlled cabinet.
After 42 days, the kill in % is determined. 100% means that all of the ticks have been killed; 0% means that none of the ticks have been killed.

Spodoptera frugiperda = Spodoptera frugiperda - spray test; assay type: in vivo; conditions: caterpillars on maize leaf discs, after 7 days
Outline: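 Percent mortality of Spodoptera frugiperda caterpillars scored 7 days after placing them on dried maize leaf discs sprayed at the desired concentration. Spray formulation: compound dissolved in acetone/dimethylformamide, made up with water containing 1000 ppm emulsifier.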

Lucilia cuprina = Lucilia cuprina test; assay type: in vivo; conditions: application rate 100 ppm; L1 larvae; after 2 days
Outline: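 Mortality (%) of first-instar blowfly larvae, about 20 per vessel, recorded 2 days after exposure to compound-treated minced horsemeat. Compound dissolved in dimethyl sulphoxide, then water-diluted to the desired concentration.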

[2] = system: Boophilus microplus Parkhurst strain, SP-resistant; experiment: Boophilus microplus - dip test; assay type: in vivo; conditions: application rate 100 ppm; dip of engorged adult female ticks; after 7 days
Outline: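 Compound dissolved in DMSO, diluted with water, and used to fully wet groups of 8-10 engorged female cattle ticks (SP-resistant Parkhurst strain). Fertile egg laying assessed at 7 days, doubtful eggs held ~42 days until hatch; 0% means all eggs fertile.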

Tetranychus urticae = Tetranychus urticae - spray test, OP-resistant; assay type: in vivo; conditions: bean leaf discs, after 6 days
Outline: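 Mortality (%) read on day 6 after spraying Phaseolus vulgaris leaf discs carrying all mite stages with formulations at the desired concentration. Formulation: active ingredient in acetone plus dimethylformamide, made up with emulsifier-containing water (1000 ppm alkylaryl polyglycol ether).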

Boophilus microplus = Boophilus microplus - injection test; assay type: in vivo; conditions: application rate 20 μg/animal; injection into engorged adult female ticks; after 7 days
Outline: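 Five engorged adult female cattle ticks each received a 1 μl abdominal injection of compound solution in dimethyl sulphoxide. Fertile egg laying was assessed at 7 days, with doubtful eggs incubated about 42 days until hatch. 0% efficacy means all eggs fertile.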

[3] = logP determination by HPLC on a reversed-phase column (C18); assay type: physicochemical; conditions: for logP^a): HPLC-MS method a); for log P: HPLC-MS
Ctenocephalides felis [4] = experiment: Ctenocephalides felis - in vitro contact tests with adult cat fleas; assay type: in vivo; conditions: application rate 5 μg/cm2 (=500 g/ha); after 48 h; fleas dead or moribund
Outline: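 Efficacy, as percentage of fleas dead or moribund, was scored at 48 h by knocking fleas to the tube base. Exposure was by contact with a dried acetone film of compound at 5 μg/cm^2 area dose; 5–10 adults per tube, room temperature, ambient humidity.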

Musca domestica = Musca domestica test; assay type: in vivo; conditions: application rate 100 ppm; adult houseflies; after 2 days
Outline: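 First, 10 mg compound was taken up in 0.5 ml DMSO and then brought with water to the required concentration. This was applied with sugar solution to a sponge in vessels holding 10 adult flies; kill was assessed after 2 days.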

Rhipicephalus sanguineus = Rhipicephalus sanguineus - in vitro contact tests with adult brown dog ticks; assay type: in vivo; conditions: after 48 h, ticks dead or moribund
Outline: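 Efficacy, scored after 48 h, is the % of adult ticks dead or moribund, i.e. unable to climb away on a 45-50° C hotplate within 5 min. Tubes held 5-10 ticks in the dark at room temperature, on an acetone-applied coating of 5 μg/cm^2 (900 ppm solution).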

[5] = reversed-phase column (C18), Table I-T3

| SMILES | efficacy (Myzus persicae; application rate 500 g/ha) [%] | efficacy (Phaedon cochleariae; application rate 500 g/ha) [%] | efficacy (kill) (Ctenocephalides felis [1]) [%] | efficacy (kill) (Amblyomma hebraeum) [%] | efficacy (Spodoptera frugiperda; application rate 500 g/ha) [%] | efficacy (kill) (Lucilia cuprina) [%] | efficacy (laying of fertile eggs) [2] [%] | efficacy (Tetranychus urticae; application rate 500 g/ha) [%] | efficacy (laying of fertile eggs) (Boophilus microplus) [%] | logP^a) [3] | log P [3, 5] | efficacy (Ctenocephalides felis [4]) [%] | efficacy (kill) (Musca domestica) [%] | efficacy (Phaedon cochleariae; application rate 100 g/ha) [%] | efficacy (Rhipicephalus sanguineus; application rate 5 μg/cm2) [%] | efficacy (Spodoptera frugiperda; application rate 100 g/ha) [%] | efficacy (Tetranychus urticae; application rate 100 g/ha) [%] | logP^a) ([3]; reversed-phase column (C18)) | other results |
| --- | --- | --- | --- | --- | --- | --- | --- | --- | --- | --- | --- | --- | --- | --- | --- | --- | --- | --- | --- |
| CN(C(=O)c1cc(-c2cnn(-c3c(Cl)cc(C(F)(C(F)(F)F)C(F)(F)F)cc3Cl)c2)cnc1Cl)C1CC1 [I-T3-100] | 100 | 100 | 100 | 100 | 100 | 100 | 100 | 100 | 100 | 4.4 | 4.4 | 100 | 100 |  |  |  |  |  |  |
| O=C(NC1CC1)c1cc(-c2cnn(-c3c(Cl)cc(C(F)(C(F)(F)F)C(F)(F)F)cc3C(F)(F)F)c2)ccc1Cl [I-T3-56] |  |  | 100 | 100 |  | 100 | 100 |  | 100 | 4.4 |  | 100 | 100 | 100 | 100 | 100 | 100 |  | logP^a) [3, 5]: 4.4 |
| CCc1cc(C(F)(C(F)(F)F)C(F)(F)F)ccc1-n1cc(-c2cnc(Cl)c(C(=O)NC3CC3)c2)cn1 [I-T3-104] |  | 100 | 100 | 100 | 100 | 100 | 100 | 90 | 100 |  | 4.2 |  | 100 |  | 100 |  |  | 4.2 |  |
| Cc1cc(C(F)(C(F)(F)F)C(F)(F)F)cc(C)c1-n1cc(-c2ccc(Cl)c(C(=O)NC3CC3)c2)cn1 [I-T3-1] |  |  | 100 | 100 |  | 100 | 100 |  | 100 | 4.4 |  | 100 | 100 | 100 | 100 | 100 | 100 |  | logP^a) [3, 5]: 4.4 |
| Cc1cc(C(F)(C(F)(F)F)C(F)(F)F)cc(C)c1-c1cnn(-c2cnc(Cl)c(C(=O)NC3(C#N)CC3)c2)c1 [I-T4-4] |  |  | 100 | 100 |  | 100 | 100 |  | 100 |  |  | 100 |  | 100 | 100 | 100 | 100 |  | logP ([3]; HPLC, C18 reversed phase, acetonitrile/water with formic acid, EEC Directive 79/831 Annex V.A8): 4.3 |
| Cc1cc(C(F)(C(F)(F)F)C(F)(F)F)cc(C)c1-n1cc(-c2cnc(Cl)c(C(=O)N(C)C3(C#N)CC3)c2)cn1 [I-T3-103] | 90 | 100 | 100 | 90 | 100 | 100 | 100 | 100 | 100 |  | 4.3 | 100 | 100 |  |  |  |  | 4.3 |  |
| O=C(NC1CC1)c1cc(-c2cnn(-c3c(F)cc(C(F)(C(F)(F)F)C(F)(F)F)cc3F)c2)ccc1Cl [I-T3-61] |  |  | 100 | 80 |  | 100 | 100 |  | 100 | 4.0 |  | 100 | 100 | 100 | 100 | 100 | 100 |  | logP^a) [3, 5]: 4.0 |
| Cc1cc(C(F)(C(F)(F)F)C(F)(F)F)cc(C(F)(F)F)c1-n1cc(-c2cnc(Cl)c(C(=O)N(C)C3CC3)c2)cn1 [I-T3-107] | 100 | 100 | 100 | 100 | 100 | 100 | 100 | 100 | 100 |  | 4.5 | 100 | 100 |  |  |  |  | 4.5 |  |
| Cc1ncc(-c2cnn(-c3c(Cl)cc(C(F)(C(F)(F)F)C(F)(F)F)cc3C(F)(F)F)c2)cc1C(=O)N(C)C1(C#N)CC1 [I-T3-131] |  |  | 100 | 100 |  | 100 | 100 |  | 100 |  | 3.9 | 100 | 100 | 100 |  | 100 | 100 | 3.9 | efficacy (Myzus persicae; application rate 100 g/ha): 90% |
| CCc1cc(C(F)(C(F)(F)F)C(F)(F)F)ccc1-n1cc(-c2cnc(Cl)c(C(=O)NC3(C#N)CC3)c2)cn1 [I-T3-105] | 90 | 100 | 100 | 85 | 100 | 100 |  | 90 | 100 |  | 4.1 |  | 80 |  |  |  |  | 4.1 | efficacy (Rhipicephalus sanguineus; application rate 0.2 μg/cm2): 100% |
| Cc1ncc(-c2cnn(-c3c(Cl)cc(C(F)(C(F)(F)F)C(F)(F)F)cc3C(F)(F)F)c2)cc1C(=O)NC1CC1 [I-T3-124] |  |  | 100 | 100 |  | 100 | 100 |  | 100 |  | 3.5 | 100 | 100 | 100 |  | 100 | 100 | 3.5 | efficacy (Myzus persicae; application rate 100 g/ha): 100% |
| CN(C(=O)c1cc(-c2cnn(-c3c(Cl)cc(C(F)(C(F)(F)F)C(F)(F)F)cc3C(F)(F)F)c2)cnc1Cl)C1(C#N)CC1 [I-T3-116] |  | 100 | 100 | 100 | 100 | 100 | 100 | 90 | 100 |  | 4.3 | 100 | 100 |  |  |  |  | 4.3 | efficacy (Myzus persicae; application rate 100 g/ha): 100% |
